Values of other authors as cited in patent publication US12239131B2, “Plant growth regulator concentrate and use thereof” (FINE AGROCHEMICALS LIMITED, priority 2018, dated 2025).

Row | SMILES | pKa
1 | O=S(=O)(O)CCO [HESA, 2-hydroxyethyl sulphonic acid] | −1.4
2 | CC1(C)C2CCC1(CS(=O)(=O)O)C(=O)C2 (stereo not drawn) [Camphor sulfonic acid] | 1.2
3 | CC(O)(P(=O)(O)O)P(=O)(O)O [HEDP, (1-hydroxyethane-1,1-diyl)bis(phosphonic acid)] | 1.35
